In patent US20030204862A1, “Inbred embryonic stem-cell derived mice” (priority 2002, published 2003):
Where “and” joins values, the source holds several entries; their conditions need not be identical. Equal values may be shown once.

How the values were obtained:
C57BL/6 blastocysts = assay: Derivation of ES cell lines from C57BL/6 blastocysts in medium with MEK inhibitor; assay type: cell-based, mouse; conditions: for Efficiency to derive ES lines / Number of established ES lines: C57BL/6, PD98059 50 then 25 micromolar, 18 blastocysts, UO126 10 then 4 micromolar, 40 blastocysts, 39° C; for higher efficiency of ES cell line derivation in the presence of the MEK inhibitor versus standard conditions: compared with standard conditions (Table 1)
Description: ES cell derivation was essentially performed as described by Hogan et al. (Manipulating the mouse embryo, CSHL Press 1994, pp253-89), except that cell culture was performed at 39° C. instead of 37° C. C57BL/6 (Janvier, France), 129SvEv/Tac (Taconic M&B, Denmark) or C57BL/6-APCMin (Jackson Laboratories, USA) male and female mice were mated to obtain blastocysts from fertilized females. The C57BL/6-APCMin mouse strain harbours a spontaneous mutation in the APC tumor suppressor gene (Su L K et al (1992) Science 256:668-670) and provides a genetic model for human hereditary colon cancer. Plug positive females were set aside, and 3 days later blastocysts were isolated by flushing their uteri. The blastocysts were further cultured overnight in CZB medium (Chatot et al. (1990) Biol. Reprod. 42:432-440) and then transferred into 12-well tissue culture plates (1 blastocyst per well), precoated with a monolayer of Mitomycin-C inactivated primary mouse embryonic fibroblasts, in standard ES cell culture medium (“standard conditions”) (Torres and Kuehn, Laboratory protocols for conditional gene targeting, Oxford University Press 1997), or in standard medium supplemented with the MEK inhibitor PD 98059 (NEB Biolabs) (50 micromolar concentration, diluted from a 50 millimolar stock in DMSO stored at −20° C.) or with the MEK inhibitor UO126 (10 micromolar concentration; NEB Biolabs). These cultures were incubated in a tissue culture incubator (Heraeus) for 6 days at 39° C. in a 10% CO2 atmosphere. The outgrown inner cell mass of each blastocyst was isolated with a pipette tip under low power magnification, transferred into a 50 microliter drop of Trypsin solution and incubated at 39° C. for 5-10 minutes. This cell clump was further dissociated by pipetting, the cells were transferred into tissue culture dishes and further propagated at 39° C. using standard ES cell culture conditions (Torres and Kuehn 1997, supra), with and without PD98059 (50 micromolar) or UO126 (10 micromolar). After the initial establishment of ES cell lines propagated in the presence of PD98059 (6 days after the first dissociation) the concentration of PD98059 was reduced to 25 micromolar, the concentration of UO 126 was reduced to 4 micromolar, and the cells were further propagated. The C57BL/6 line Bruce4 (Kontgen et al, (1993) Int Immunol. 5:957-964) was grown under standard conditions at 37° C.
(§1) The sex of the cell lines was determined through Southern blot hybridisation of genomic DNA using a detection probe (pY353) specific to a Y-chromosome specific repeat (Bishop C E and Hatat D. (1987) Nucleic Acids Res 15, 2959-2969).
For the karyotype analysis of ES cell clones, 4×10^6 cells were cultured for 1 hour in the presence of 0.2 μg/ml Demicolchicin (Sigma), trypsinised, resuspended in a hypotonic (0.56%) KCl solution and incubated for 8 minutes at room temperature. The swollen cells were sedimented by centrifugation, resuspended in freshly prepared fixative (3:1 mixture of ethanol/glacial acetic acid) and subsequently washed 2 times in fixative. Finally, the cells were resuspended in 0.5 ml fixative and dropped on glass slides precleaned with ethanol/acetic acid (19/1). After air drying, the metaphase spreads were stained for 5 minutes in a 2% solution of Giemsa's stain (Merck), washed in water, and air-dried. The chromosome numbers of 20 suitable metaphase spreads were counted at 1000× magnification under oil immersion.

129SvEv/Tac blastocysts = assay: Derivation of ES cell lines from 129SvEv/Tac blastocysts in medium with MEK inhibitor; assay type: cell-based, mouse; conditions: PD98059 50 then 25 micromolar, 12 blastocysts, 39° C
Description: ES cell derivation was essentially performed as described by Hogan et al. (Manipulating the mouse embryo, CSHL Press 1994, pp253-89), except that cell culture was performed at 39° C. instead of 37° C. C57BL/6 (Janvier, France), 129SvEv/Tac (Taconic M&B, Denmark) or C57BL/6-APCMin (Jackson Laboratories, USA) male and female mice were mated to obtain blastocysts from fertilized females. The C57BL/6-APCMin mouse strain harbours a spontaneous mutation in the APC tumor suppressor gene (Su L K et al (1992) Science 256:668-670) and provides a genetic model for human hereditary colon cancer. Plug positive females were set aside, and 3 days later blastocysts were isolated by flushing their uteri. The blastocysts were further cultured overnight in CZB medium (Chatot et al. (1990) Biol. Reprod. 42:432-440) and then transferred into 12-well tissue culture plates (1 blastocyst per well), precoated with a monolayer of Mitomycin-C inactivated primary mouse embryonic fibroblasts, in standard ES cell culture medium (“standard conditions”) (Torres and Kuehn, Laboratory protocols for conditional gene targeting, Oxford University Press 1997), or in standard medium supplemented with the MEK inhibitor PD 98059 (NEB Biolabs) (50 micromolar concentration, diluted from a 50 millimolar stock in DMSO stored at −20° C.) or with the MEK inhibitor UO126 (10 micromolar concentration; NEB Biolabs). These cultures were incubated in a tissue culture incubator (Heraeus) for 6 days at 39° C. in a 10% CO2 atmosphere. […]
as §1
(§2) For the karyotype analysis of ES cell clones, 4×10^6 cells were cultured for 1 hour in the presence of 0.2 μg/ml Demicolchicin (Sigma), trypsinised, resuspended in a hypotonic (0.56%) KCl solution and incubated for 8 minutes at room temperature. […] The chromosome numbers of 20 suitable metaphase spreads were counted at 1000× magnification under oil immersion.

C57BL/6 ES cell lines = assay: ES mouse production by injection of C57BL/6 inbred ES cells into tetraploid blastocysts; assay type: in vivo; conditions: for Number of respirating pups / respirating pups efficiency: E 19.5; for Number of surviving pups / surviving pups efficiency: alive three days later
Description: (§3) Production of mice by tetraploid embryo complementation has been previously described (Eggan et al. (2001) PNAS 98:6209-6214). Briefly, embryo culture was carried out in microdrops on standard bacterial petri dishes (Falcon) under mineral oil (Sigma). Modified CZB media (Chatot et al, Supra) was used for embryo culture unless otherwise noted. Hepes buffered CZB was used for room temperature operations. After administration of hormones, superovulated B6D2F1 females were mated with B6D2F1 males. Fertilized zygotes were isolated from the oviduct and any remaining cumulus cells were removed with hyluronidase. After overnight culture, two-cell embryos were electrofused to produce one cell tetraploid embryos using a CF150-B cell fusion instrument from BLS (Budapest, Hungary) according to the manufacturers instructions. Embryos that had not undergone membrane fusion within 1 hour were discarded. Embryos were then cultured in vitro to the blastocyst stage. For microinjection, 5-6 blastocysts were placed in a drop of DMEM with 15% FCS under mineral oil. A flat tip, piezo actuated microinjection-pipette with an internal diameter of 12-15 μm was used to inject 15 ES cells into each blastocyst. After recovery, ten injected blastocysts were transferred to each uterine horn of 2.5 days post coitum, pseudopregnant NMRI females that had been mated with vasectomized males. For cesarian derivation, recipient mothers were sacrificed at E 19.5 and pups were quickly removed. Newborns that were alive and respirating were cross-fostered to lactating females. Three days later, the litters were controlled, and pups alive by that time were counted as surviving pups.

[1] = system: 129 ES cell lines (129S6/SvEvTac); assay: ES mouse production by injection of 129 inbred ES cells into tetraploid blastocysts; assay type: in vivo; conditions: ES line ESAR-S6-PD.4 (129S6/SvEvTac) grown with PD98059, 335 injected tetraploid blastocysts
Description: as §3

[2] = system: C57BL/6 ES cell lines (Apcmin mutant or Rosa(lacZ) knock-in); assay: Production of genetically engineered and mutant inbred ES mice by tetraploid blastocyst injection; assay type: in vivo, mouse; parameters: respirating pups efficiency: concentration or dose not given beside the values
Description: as §3
In order to generate inbred ES mice which harbour genetic alterations we pursued two different strategies. In the first protocol ES cell lines that were established and grown in media with UO 126 (see Example I) and which harbour the C57BL/6-APCMin mutation were injected into tetraploid blastocysts. […] In the second protocol the C57BL/6 ES cell line ESAR-B6-PD.4 was genetically modified in a predetermined manner through homologous recombination using a gene targeting vector. This vector (Rosa(lacZ) knock-in) introduces a beta-galactosidase reporter gene in conjunction with a selectable hygromycin resistance gene into the endogenous Rosa26 locus of the ES cell genome (Seibler et al., Nucleic Acids Res. 31, e12, 2003). This gene targeting vector was electroporated into ESAR-B6-PD4 cells exactly as described (Seibler et al., Nucleic Acids Res. 31, e12, 2003) and hygromycin resistant ES cell colonies were selected, isolated and further expanded. The genomic DNA of resistant colonies was isolated and tested by Southern blot analysis for the occurrence of a homologous recombination event in one of the Rosa26 alleles. Cells from one of the recombined ES cell clones (ESAR-B6-PD.4-R9 A-F2) was injected into tetraploid blastocysts.

[3] = system: undifferentiated ES cells; conditions: added to the culture medium; Burdon et al. (1999), WO 0015764; cited from earlier work
[4] = system: C57BL/6-APCMin blastocysts; conditions: UO126 10 then 4 micromolar, 33 blastocysts, 39° C
Description: ES cell derivation was essentially performed as described by Hogan et al. (Manipulating the mouse embryo, CSHL Press 1994, pp253-89), except that cell culture was performed at 39° C. instead of 37° C. C57BL/6 (Janvier, France), 129SvEv/Tac (Taconic M&B, Denmark) or C57BL/6-APCMin (Jackson Laboratories, USA) male and female mice were mated to obtain blastocysts from fertilized females. The C57BL/6-APCMin mouse strain harbours a spontaneous mutation in the APC tumor suppressor gene (Su L K et al (1992) Science 256:668-670) and provides a genetic model for human hereditary colon cancer. Plug positive females were set aside, and 3 days later blastocysts were isolated by flushing their uteri. […]
as §1, §2

[5] = ES line ESAR-B6-PD.13 (C57BL/6J) grown with PD98059, 180 injected tetraploid blastocysts
[6] = ES line ESAR-B6-PD.3 (C57BL/6J) grown with PD98059, 372 injected tetraploid blastocysts
[7] = ES line ESAR-B6-PD.4 (C57BL/6J) grown with PD98059, 329 injected tetraploid blastocysts
[8] = Sum of three C57BL/6 ES lines grown with PD98059, 881 injected tetraploid blastocysts
[9] = Rosa(lacZ) knock-in ES clone ESAR-B6-PD.4 R9 B-G12 (C57BL/6 J) with PD98059, 162 injected tetraploid blastocysts
[10] = ES line ESAR-APC 3 UO (C57BL/6 J Apcmin) grown with UO126, 405 injected tetraploid blastocysts
[11] = ES line ESAR-APC 9 UO (C57BL/6 J Apcmin) grown with UO126, 228 injected tetraploid blastocysts
[12] = Sum of two C57BL/6 J Apcmin ES lines grown with UO126, 633 injected tetraploid blastocysts

COc1cccc(-c2cc(=O)c3ccccc3o2)c1N [PD98059, 2′-amino-3′-methoxyflavone]
Efficiency to derive ES lines (C57BL/6 blastocysts): 61%
Number of established ES lines (C57BL/6 blastocysts): 11
Efficiency to derive ES lines (C57BL/6 blastocysts; listed as PD 98059): 61%
higher efficiency of ES cell line derivation in the presence of the MEK inhibitor versus standard conditions (C57BL/6 blastocysts): 5 fold
Efficiency to derive ES lines (129SvEv/Tac blastocysts): 75%
Number of established ES lines (129SvEv/Tac blastocysts): 9
Efficiency to derive ES lines (129SvEv/Tac blastocysts; listed as PD 98059): 75%
Number of respirating pups (C57BL/6 ES cell lines; [5]): 4
respirating pups efficiency (C57BL/6 ES cell lines; [5]): 2.22%
Number of surviving pups (C57BL/6 ES cell lines; [5]): 0
surviving pups efficiency (C57BL/6 ES cell lines; [5]): 0.00%
Number of respirating pups (C57BL/6 ES cell lines; [6]): 8
respirating pups efficiency (C57BL/6 ES cell lines; [6]): 2.15%
Number of surviving pups (C57BL/6 ES cell lines; [6]): 1
surviving pups efficiency (C57BL/6 ES cell lines; [6]): 0.27%
Number of respirating pups (C57BL/6 ES cell lines; [7]): 11
respirating pups efficiency (C57BL/6 ES cell lines; [7]): 3.34%
Number of surviving pups (C57BL/6 ES cell lines; [7]): 4
surviving pups efficiency (C57BL/6 ES cell lines; [7]): 1.22%
Number of respirating pups (C57BL/6 ES cell lines; [8]): 23
respirating pups efficiency (C57BL/6 ES cell lines; [8]): 2.6% and 2.61%
Number of surviving pups (C57BL/6 ES cell lines; [8]): 5
surviving pups efficiency (C57BL/6 ES cell lines; [8]): 0.57%
Number of respirating pups ([1]; E 19.5): 29
respirating pups efficiency ([1]; E 19.5): 8.66%
Number of surviving pups ([1]; alive three days later): 15
surviving pups efficiency ([1]; alive three days later): 4.48%
Number of respirating pups [2, 9]: 4
respirating pups efficiency [2, 9]: 2.47%
effect on growth of undifferentiated ES cells [3]: enhances the growth of undifferentiated ES cells

N#CC(=C(/N)Sc1ccccc1N)/C(C#N)=C(/N)Sc1ccccc1N [UO126, bis[amino[(2-aminophenyl)thio]methylene]butanedinitrile]
Efficiency to derive ES lines (C57BL/6 blastocysts): 80%
Number of established ES lines (C57BL/6 blastocysts): 32
Efficiency to derive ES lines (C57BL/6 blastocysts; listed as UO 126): 80%
higher efficiency of ES cell line derivation in the presence of the MEK inhibitor versus standard conditions (C57BL/6 blastocysts): 5 fold
Efficiency to derive ES lines [4]: 36%
Number of established ES lines [4]: 12
Number of respirating pups [2, 10]: 11
respirating pups efficiency [2, 10]: 2.72%
Number of respirating pups [2, 11]: 1
respirating pups efficiency [2, 11]: 0.44%
Number of respirating pups [2, 12]: 12
respirating pups efficiency [2, 12]: 1.90%
respirating pups efficiency ([2]; Sum of two C57BL/6 J Apcmin ES lines grown with UO126, 633 injected tetraploid blastocysts, listed as UO 126): 1.9%
